Laboratory results: patent US20050250677A1, “Glycopeptide antibiotic derivatives” (priority 2002, published 2005)
Where two headings read alike, the source gives them in different places.

Experiments:
[1] = system: HIV-1 (IIIB); experiment: Inhibition of HIV-1 (IIIB)-induced cytopathicity (giant cell formation) in CEM cells; assay type: cell-based; conditions: read-out: EC50 HIV-1 (concentration required to inhibit HIV-induced giant cell formation by 50%); HIV-1, CEM cell cultures
Experimental: (§1) A variety of glycopeptide antibiotic derivatives of vancomycin, eremomycin and teicoplanin including their aglycon derivatives were evaluated for their inhibitory activity against HIV-1 (IIIB) and HIV-2(ROD) in CEM cell cultures.

[2] = system: human lymphocyte Molt4/clone 8; experiment: Cytostatic activity assay, Molt4/clone 8 cells; assay type: cell-based; conditions: read-out: IC50 Molt4/C8 (compound concentration required to inhibit tumor cell proliferation by 50%)
[3] = system: FCK cells; conditions: read-out: CC50 FCK; FCK cells
[4] = system: HEL cells
[5] = system: human lymphocyte CEM; experiment: Cytostatic activity assay, CEM cells; assay type: cell-based; conditions: read-out: IC50 CEM (compound concentration required to inhibit tumor cell proliferation by 50%)
[6] = system: FCV; experiment: Feline corona virus assay in Feline Crandel kidney cells (MTS); assay type: cell-based; conditions: for EC50: FCV in FCK cells, read-out: EC50 FCV
Experimental: Feline Crandel kidney cells were seeded in 96-well microtiter plates at 24,000 cells/well. Then, 24 hrs later, an appropriate inoculum of FCV is added together with 5-fold dilutions of the test compounds. After 4 days, a MTS/PMS solution was added to each well. Following a 90 min incubation period at 37° C., the optical density of the wells was read at 498 nm in a microplate reader.

[7] = system: HEL cells; conditions: read-out: CC50 (HEL), HEL cells
[8] = system: murine leukemia L1210; experiment: Cytostatic activity assay, L1210 cells; assay type: cell-based; conditions: read-out: IC50 L1210 (compound concentration required to inhibit tumor cell proliferation by 50%)
[9] = system: VZV (wild-type strains); experiment: Anti-VZV assay (wild-type strains): virus-induced cytopathicity in HEL cell cultures; assay type: cell-based, varicella-zoster virus
[10] = system: HIV-2(ROD); experiment: Inhibition of HIV-2 (ROD)-induced cytopathicity (giant cell formation) in CEM cells; assay type: cell-based; conditions: read-out: EC50 HIV-2 (concentration required to inhibit HIV-induced giant cell formation by 50%); HIV-2, CEM cell cultures
Experimental: as §1

[11] = system: CMV; experiment: Anti-CMV assay: virus-induced cytopathicity in HEL cell cultures
[12] = VZV strain OKA, HEL cell cultures, read-out: EC50 VZV (OKA)
[13] = VZV strain YS, HEL cell cultures, read-out: EC50 VZV (YS)
[14] = read-out: EC50 CMV AD-169, CMV strain AD-169, HEL cell cultures
[15] = read-out: EC50 CMV Davis, CMV strain Davis, HEL cell cultures

SMILES | EC50 [1] | IC50 [2] | CC50 [3] | MTC (HEL) ([4]; anti-VZV table) | IC50 [5] | activity against FCV [6] | EC50 [6] | CC50 ([7]; anti-VZV table) | IC50 [8] | activity against VZV [9] | EC50 [9, 12] | EC50 [9, 13] | EC50 [10] | MTC (HEL) ([4]; anti-CMV table) | CC50 ([7]; anti-CMV table) | EC50 [11, 14] | EC50 [11, 15] | EC50 ([9]; read-out: EC50 against VZV) | anti-CMV activity [11]
CNC(=O)C1NC(=O)C2NC(=O)C(NC(=O)C3NC(=O)C(CC(N)=O)NC(=O)C(NC(=O)C(CC(C)C)N(C)C(=O)OC(C)(C)C)C(O)c4ccc(c(Cl)c4)Oc4cc3cc(c4O)Oc3ccc(cc3)C2O)c2ccc(O)c(c2)-c2c1cc(O)c(CN1CCN(Cc3ccc(-c4ccccc4)cc3)CC1)c2O (centres unmarked) [Compound 7] | 4 µM | > 100 µM | > 50 µM | ≧20 μM | > 100 µM | pronounced activity | 3.6 µM | > 50 µM | 84 ± 22 µM | pronounced activity | 1 µM | 0.87 µM | 3.5 ± 0.7 µM | – | – | – | – | – | –
CCCCCCCCCC[N+](C)(C)CCCNC(=O)C1NC(=O)C2NC(=O)C(NC(=O)C3NC(=O)C4NC(=O)C(Cc5ccc(c(Cl)c5)Oc5cc3cc(c5O)Oc3ccc(cc3Cl)C2O)NC(=O)C(N)c2ccc(O)c(c2)Oc2cc(O)cc4c2)c2ccc(O)c(c2)-c2c1cc(O)c(CN1CC[N+](C)(CCCCCCCCCC)CC1)c2O (centres unmarked) [Compound 39] | – | 14 ± 3 µM | – | ≧5 μM | 14 ± 2 µM | – | – | 170 µM | 7.3 ± 0.3 µM | – | 0.9 µM | 0.81 µM | 1.3 ± 0.21 µM | ≧5 μM | 170 µM | > 2 µM | 4 µM | – | –
CCCCc1ccc(CNCc2c(O)cc3c(c2O)-c2cc(ccc2O)C2NC(=O)C4NC(=O)C5NC(=O)C(Cc6ccc(c(Cl)c6)Oc6cc4cc(c6O)Oc4ccc(cc4Cl)C(O)C(NC2=O)C(=O)NC3C(=O)NC)NC(=O)C(NC(=O)OC(C)(C)C)c2ccc(O)c(c2)Oc2cc(O)cc5c2)cc1 (centres unmarked) [Compound 47] | 6 ± 1 µM | > 100 µM | > 50 µM | – | > 100 µM | – | 16 µM | – | 70 ± 23 µM | – | – | – | 12 ± 5.2 µM | – | – | – | – | – | –
NC1C(=O)NC2Cc3ccc(c(Cl)c3)Oc3cc4cc(c3O)Oc3ccc(cc3Cl)C(O)C3NC(=O)C(NC(=O)C4NC(=O)C(NC2=O)c2cc(O)cc(c2)Oc2cc1ccc2O)c1ccc(O)c(c1)-c1c(cc(O)c(CNC2C4CC5CC(C4)CC2C5)c1O)C(C(=O)NC1C2CC4CC(C2)CC1C4)NC3=O (centres unmarked) [Compound 52] | 2.5 ± 0.7 µM | > 250 µM | > 50 µM | – | > 250 µM | – | 14 µM | – | 202 ± 68 µM | – | – | – | 3.5 ± 2.1 µM | – | – | – | – | – | –
CNC(CC(C)C)C(=O)NC1C(=O)NC(CC(N)=O)C(=O)NC2C(=O)NC3C(=O)NC(C(=O)NC(C(=O)O)c4cc(O)cc(O)c4-c4cc3ccc4O)C(O)c3ccc(c(Cl)c3)Oc3cc2cc(c3OC2OC(CO)C(O)C(O)C2OC2CC(C)(NCc3ccc(-c4ccc(Cl)cc4)cc3)C(O)C(C)O2)Oc2ccc(cc2Cl)C1O (centres unmarked) [Compound 59] | – | – | – | 5 to 20 µM | – | – | – | > 50 µM | – | – | 0.87 µM | 0.89 µM | – | 5 to 20 µM | > 50 µM | > 5 µM | 16 µM | 0.87 to 0.89 µM | anti-CMV activity
CCCCCCCCCCNC1(C)CC(OC2C(Oc3c4cc5cc3Oc3ccc(cc3Cl)C(O)C(NC(=O)C(CC(C)C)NC)C(=O)NC(CC(N)=O)C(=O)NC5C(=O)NC3C(=O)NC(C(=O)NC(C(=O)O)c5cc(O)cc(O)c5-c5cc3ccc5O)C(OC3CC(C)(N)C(O)C(C)O3)c3ccc(cc3)O4)OC(CO)C(O)C2O)OC(C)C1O (centres unmarked) [Compound 68] | – | – | – | 5 to 50 µM | – | – | – | > 200 µM | – | – | > 2 µM | 0.7 µM | – | 5 to 50 µM | > 200 µM | 20 µM | > 20 µM | – | –
CNC(CC(C)C)C(=O)NC1C(=O)NC(CC(N)=O)C(=O)NC2C(=O)NC3C(=O)NC(C(=O)NC(C(=O)NCC45CC6CC(CC(C6)C4)C5)c4cc(O)cc(O)c4-c4cc3ccc4O)C(O)c3ccc(cc3)Oc3cc2cc(c3O)Oc2ccc(cc2Cl)C1O (centres unmarked) [Compound 99] | 1.6 ± 0.36 µM | 126 ± 11 µM | ≥ 100 µM | – | 148 ± 3 µM | pronounced activity | 23 µM | – | 94 ± 15 µM | – | – | – | 7 µM | – | – | – | – | – | –
CNC(CC(C)C)C(=O)NC1C(=O)NC(CC(N)=O)C(=O)NC2C(=O)NC3C(=O)NC(C(=O)NC(C(=O)NCc4ccc(F)cc4)c4cc(O)cc(O)c4-c4cc3ccc4O)C(O)c3ccc(cc3)Oc3cc2cc(c3O)Oc2ccc(cc2Cl)C1O (centres unmarked) [Compound 100] | 41.7 ± 20.2 µM | > 250 µM | > 100 µM | – | > 250 µM | pronounced activity | 20 µM | – | > 250 µM | – | – | – | > 125 µM | – | – | – | – | – | –
CNC(CC(C)C)C(=O)NC1C(=O)NC(CC(N)=O)C(=O)NC2C(=O)NC3C(=O)NC(C(=O)NC(C(=O)N4CCC5CCCCC5C4)c4cc(O)cc(O)c4-c4cc3ccc4O)C(O)c3ccc(cc3)Oc3cc2cc(c3O)Oc2ccc(cc2Cl)C1O (centres unmarked) [Compound 101] | 63.3 ± 53.5 µM | > 250 µM | > 100 µM | – | > 250 µM | pronounced activity | 47 µM | – | > 250 µM | – | – | – | > 125 µM | – | – | – | – | – | –
NC(=O)CC1NC(=O)C(NC(=O)C(N)Cc2c[nH]c3ccccc23)C(O)c2ccc(c(Cl)c2)Oc2cc3cc(c2O)Oc2ccc(cc2)C(O)C2NC(=O)C(NC(=O)C3NC1=O)c1ccc(O)c(c1)-c1c(O)cc(O)cc1C(C(=O)O)NC2=O [Compound 109, N-(D-Trp)-(de-N-Me-D-Leu)eremomycin aglycon] | 7.3 ± 0.58 µM | > 250 µM | > 100 µM | – | > 250 µM | pronounced activity | 28 µM | – | > 250 µM | – | – | – | 42.5 ± 10.6 µM | – | – | – | – | – | –
O=C1NC2C(=O)NC3C(=O)NC4C(=O)NC(C(=O)NC(C(=O)O)c5cc(O)cc(O)c5-c5cc4ccc5O)C(O)c4ccc(c(Cl)c4)Oc4cc3cc(c4O)Oc3ccc(cc3Cl)CC1NC(=O)C(NCc1ccc(-c3ccccc3)cc1)c1ccc(O)c(c1)Oc1cc(O)cc2c1 (centres unmarked) [Compound 122] | – | – | – | 20 to 50 µM | – | – | – | > 50 µM | – | – | 1 µM | 1 µM | – | 20 to 50 µM | > 50 µM | > 20 µM | – | – | –
NC1C(=O)NC2Cc3ccc(c(Cl)c3)Oc3cc4cc(c3O)Oc3ccc(cc3Cl)C(O)C3NC(=O)C(NC(=O)C4NC(=O)C(NC2=O)c2cc(O)cc(c2)Oc2cc1ccc2O)c1ccc(O)c(c1)-c1c(O)cc(O)cc1C(C(=O)N1CCN(Cc2ccc(C=Cc4ccccc4)cc2)CC1)NC3=O (centres unmarked) [Compound 127] | – | – | – | ≧5-20 μM | – | – | – | 44 µM | – | – | 0.7 µM | 0.3 µM | – | ≧5-20 μM | 44 µM | 10 µM | > 5 µM | – | –
